What was measured:
[1] = test system: luciferase (Luc); experiment: Reporter assay: Hela cells transfected with human RORα1 expression vector and luciferase (Luc) reporter vector; Luc activity corrected with β-Gal activity; assay type: cell-based, firefly; set-up: key: β-Gal-corrected Luc activity; smaller = inhibition, larger = promotion; details: human RORα1 expression vector, rev-DR2/TK-Luc reporter, about 1 day, smaller number = inhibitory, larger = promoting
Description: The reporter assay was used, in which Hela cells transfected with each of a pcDNA3 vector incorporated with the human RORα1 so that the gene can be expressed in animal cells as an expression vector, and a pGL3 promoter vector of which SV40 promoter was replaced with TK promoter as a luciferase expression reporter vector were used.
The Hela cells were placed at a density of 2×10^4 cells/0.1 mL/well on a 96-well cell culture plate (FALCON) by using 10% FBS-DMEM. On the next day, the human RORα1 expression vector, the reporter vector incorporated with 3 copies of rev-DR2 sequences and the HSV thymidine kinase promoter at a position upstream from the luciferase (Luc) gene, and a β-galactosidase (β-Gal) expression vector for control were introduced into the cells by using a transfection reagent (Fugene6, Roche). On the next day, the medium was replaced with 5% FBS-DMEM containing a test compound diluted at a prescribed concentration, after about 1 day, the cell supernatant was removed, then the cells were lysed (Passive Lysis buffer, Promega), the Luc substrate (PicaGene, Toyo Ink) was added to a part of the lysed cells, and the activity of produced Luc was measured as luminescence intensity. Further, the β-Gal activity was measured as intensity of fluorescence generated when 4-methylumbelliferyl β-D-galactoside was added as a substrate, and the activity of Luc corrected for the transfection efficiency with the β-Gal activity was used as the index for evaluation. A smaller number indicates inhibitory action, and a larger number indicates promoting action.

Row | Structure (SMILES) | melting point [°C] | activity of Luc corrected for the transfection efficiency with the β-Gal activity ([1]; test compound 0.01 μM) | activity of Luc corrected for the transfection efficiency with the β-Gal activity ([1]; test compound 0.1 μM) | activity of Luc corrected for the transfection efficiency with the β-Gal activity ([1]; test compound 1 μM) | activity of Luc corrected for the transfection efficiency with the β-Gal activity ([1]; test compound 10 μM)
1 | CCOC(=O)CCCc1ccc(N2Cc3ccccc3C2=O)cc1 [Compound 19, 4-[4-(1-oxo-1,3-dihydro-isoindol-2-yl)-phenyl]-butyric acid ethyl ester] | 94 to 96 | – | – | – | –
2 | O=C(O)CCCc1ccc(N2Cc3ccccc3C2=O)cc1 [Compound 20, 4-[4-(1-oxo-1,3-dihydro-isoindol-2-yl)-phenyl]-butyric acid] | 128 to 129 | – | – | – | –
3 | COc1ccc(N2Cc3cccc(N(C)C)c3C2=O)cc1 [Compound 14, 7-dimethylamino-2-(4-methoxyphenyl)-2,3-dihydro-isoindol-1-one] | 145 to 146 | 1.9 | 2.6 | 3.1 | 2.4
4 | O=C(O)C=Cc1ccc(N2Cc3ccccc3C2=O)cc1 [Compound 24, 3-[4-(1-oxo-1,3-dihydro-isoindol-2-yl)-phenyl]-acrylic acid] | – | 0.9 | 0.7 | 0.5 | 0.4
5 | CC(C)c1ccc(N2Cc3ccc(N(C)C)cc3C2=O)cc1 [Compound 6, 6-dimethylamino-2-(4-isopropyl-phenyl)-isoindol-1-one] | 169 to 170 | – | – | – | –
6 | CCCCCCCc1ccc(N2Cc3ccc(N(C)C)cc3C2=O)cc1 [Compound 8, 6-dimethylamino-2-(4-n-heptyl-phenyl)-isoindol-1-one] | 101 to 102 | – | – | – | –
7 | CN(C)c1ccc2c(c1)C(=O)N(c1ccc(CCCC(=O)O)cc1)C2 [Compound 18, 4-[4-(6-dimethylamino-1-oxo-1,3-dihydro-isoindol-2-yl)-phenyl]-butyric acid] | 186 to 187 | 0.1 | 0 | 0.0 | 0.0
8 | CCOC(=O)CCCc1ccc(N2Cc3ccc(N(C)C)cc3C2=O)cc1 [Compound 17, 4-[4-(6-dimethylamino-1-oxo-1,3-dihydro-isoindol-2-yl)-phenyl]-butyric acid ethyl ester] | – | 0.2 | 0 | 0 | 0.0
9 | CN(C)c1ccc2c(c1)CN(c1ccc(CCCC(=O)O)cc1)C2=O [Compound 16, 4-[4-(5-dimethylamino-1-oxo-1,3-dihydro-isoindol-2-yl)-phenyl]-butyric acid] | 179 to 180 | – | – | – | –
10 | CCCCc1ccc(N2Cc3cc(N(C)C)ccc3C2=O)cc1 [Compound 3, 5-dimethylamino-2-(4-n-butyl-phenyl)-isoindol-1-one] | 133 to 134 | – | – | – | –
11 | CCCCCCCCc1ccc(N2Cc3cc(N(C)C)ccc3C2=O)cc1 [Compound 9, 5-dimethylamino-2-(4-n-octyl-phenyl)-isoindol-1-one] | 128 to 129 | – | – | – | –
12 | CCCc1ccc(N2Cc3ccc(N(C)C)cc3C2=O)cc1 [Compound 2, 6-dimethylamino-2-(4-propyl-phenyl)-isoindol-1-one] | 141 to 142 | – | – | 2.8 | 3.0
13 | CC(C)c1ccc(N2Cc3cc(N(C)C)ccc3C2=O)cc1 [Compound 5, 5-dimethylamino-2-(4-isopropyl-phenyl)-isoindol-1-one] | 167 to 169 | – | – | – | –
14 | CCCCCCCCc1ccc(N2Cc3ccc(N(C)C)cc3C2=O)cc1 [Compound 10, 6-dimethylamino-2-(4-n-octyl-phenyl)-isoindol-1-one] | 100 to 101 | 0.9 | 0.7 | 0.3 | 0.4
15 | CN(C)c1ccc2c(c1)CN(c1ccc(C3CCCCC3)cc1)C2=O [Compound 11, 5-dimethylamino-2-(4-cyclohexyl-phenyl)-isoindol-1-one] | – | – | – | 2.1 | 2.6
16 | CCOC(=O)CCCc1ccc(N2Cc3cc(N(C)C)ccc3C2=O)cc1 [Compound 15, 4-[4-(5-dimethylamino-1-oxo-1,3-dihydro-isoindol-2-yl)-phenyl]-butyric acid ethyl ester] | 116 to 117 | – | – | – | –
17 | CCCc1ccc(N2Cc3cc(N(C)C)ccc3C2=O)cc1 [Compound 1, 5-dimethylamino-2-(4-propyl-phenyl)-isoindol-1-one] | 160 to 161 | – | – | – | –
18 | CN(C)c1ccc2c(c1)C(=O)N(c1ccc(CCCC(=O)OC(C)(C)C)cc1)C2 [Compound 31, 4-[4-(6-dimethylamino-1-oxo-1,3-dihydro-isoindol-2-yl)-phenyl]-butyric acid tert-butyl ester] | – | 0.8 | 0.4 | 0.1 | 0.0
19 | CN(C)c1cccc2c1C(=O)N(c1ccccc1)C2 [Compound 13, 7-dimethylamino-2-phenyl-2,3-dihydro-isoindol-1-one] | 58 to 60 | – | – | – | –

Further lines, with some results ahead:

Row | melting point [°C] | Structure (SMILES) | activity of Luc corrected for the transfection efficiency with the β-Gal activity ([1]; test compound 0.01 μM) | activity of Luc corrected for the transfection efficiency with the β-Gal activity ([1]; test compound 0.1 μM) | activity of Luc corrected for the transfection efficiency with the β-Gal activity ([1]; test compound 1 μM) | activity of Luc corrected for the transfection efficiency with the β-Gal activity ([1]; test compound 10 μM)
20 | 206 to 208 | CN(C)c1ccc2c(c1)C(=O)N(c1ccc(OCC(=O)O)cc1)C2 [Compound 28, [4-(6-dimethylamino-1-oxo-1,3-dihydro-isoindol-2-yl)-phenoxy]-acetic acid] | 1.1 | 0.8 | 0.2 | 0.1
21 | 172 to 173 | O=C(O)CCCc1ccc(N2Cc3ccc(F)cc3C2=O)cc1 [Compound 29, 4-[4-(6-fluoro-1-oxo-1,3-dihydro-isoindol-2-yl)-phenyl]-butyric acid] | 0.5 | 0.2 | 0.0 | 0.0
22 | 68 to 69 | CCCCCCCNc1cccc2c1CN(c1cc(C)cc(C)c1)C2=O [Compound 33, 2-(3,5-dimethyl-phenyl)-4-heptylamino-2,3-dihydro-isoindol-1-one] | – | – | – | –
23 | 200 to 201 | CN(C)c1ccc2c(c1)C(=O)N(c1ccc(CCC(=O)O)cc1)C2 [Compound 22, 3-[4-(6-dimethylamino-1-oxo-1,3-dihydro-isoindol-2-yl)-phenyl]-propionic acid] | – | – | – | –
24 | 167 to 168 | COC(=O)COc1ccc(N2Cc3ccc(N(C)C)cc3C2=O)cc1 [Compound 27, [4-(6-dimethylamino-1-oxo-1,3-dihydro-isoindol-2-yl)-phenoxy]-acetic acid methyl ester] | – | – | – | –
25 | 108 to 109 | CCOC(=O)CCCc1ccc(NC(=O)c2cc([N+](=O)[O-])ccc2C)cc1 [Compound 37, 4-[4-(2-methyl-5-nitro-benzoylamino)-phenyl]-butyric acid ethyl ester] | – | – | – | –
26 | 126 to 127 | CCOC(=O)CCCc1ccc(NC(=O)c2cc(C)ccc2[N+](=O)[O-])cc1 [Compound 39, 4-[4-(5-methyl-2-nitro-benzoylamino)-phenyl]-butyric acid ethyl ester] | – | – | – | –
27 | 127 to 128 | CN(C)c1cccc(C(=O)Nc2ccc(CCCC(=O)O)cc2)c1 [Compound 34, 4-[4-(3-dimethylamino-benzoylamino)-phenyl]-butyric acid] | – | – | – | –
28 | 197 to 198 | COC(=O)COc1ccc(N2Cc3ccc(N)cc3C2=O)cc1 [Compound 26, [4-(6-amino-1-oxo-1,3-dihydro-isoindol-2-yl)-phenoxy]-acetic acid methyl ester] | – | – | – | –
29 | 123 to 124 | COC(=O)CCc1ccc(N2Cc3ccc(N(C)C)cc3C2=O)cc1 [Compound 21, 3-[4-(6-dimethylamino-1-oxo-1,3-dihydro-isoindol-2-yl)-phenyl]-propionic acid methyl ester] | – | – | – | –
30 | 238 to 239 | COC(=O)COc1ccc(N2Cc3ccc([N+](=O)[O-])cc3C2=O)cc1 [Compound 25, [4-(6-nitro-1-oxo-1,3-dihydro-isoindol-2-yl)-phenoxy]-acetic acid methyl ester] | – | – | – | –
31 | 172 to 173 | Cc1ccc([N+](=O)[O-])cc1C(=O)Nc1ccc(CCCC(=O)O)cc1 [Compound 38, 4-[4-(2-methyl-5-nitro-benzoylamino)-phenyl]-butyric acid] | – | – | – | –

Source: patent US8722723B2, “Aromatic amide derivative” (Research Foundation Itsuu Laboratory, priority 2008, dated 2014)
